Assay results from patent US20230167505A1, “CIRCULATING TUMOR DNA AS A BIOMARKER FOR LEUKEMIA TREATMENT” (Cardiff Oncology, Inc., priority 2020, published 2023).
Where two headings read alike, the source gives them in different places.

Columns and labels:
[1] = system: relapsed or refractory (R/R) AML; assay: Phase 1b antileukemic activity: bone marrow evaluation, response by modified International Working Group criteria 2003; type: in vivo, human; parameters: key to Clinical Response: NR = Non-responder; Responders were defined as patients achieving complete response (BM blasts <5%) with or without count recovery (CR+CRi); settings: for BM % Blasts Log2(C1/C0): end of cycle 1 vs screening
Description: Treatment plan and study design: […] Antileukemic activity: […] Response to treatment was evaluated by the investigator using the modified International Working Group criteria 2003, detailed in Table 2. Antileukemic activity was assessed in all patients evaluable for DLTs.

PLK1 substrate, TCTP = assay: Target engagement in circulating blasts (pTCTP/TCTP in PBMCs, predose vs 3 hours postdose); type: in vivo, human
Description: Samples were analyzed with a FACSCanto II (BD Biosciences).
Protein extract preparation and immunoblot: Protein extracts were prepared from PBMCs isolated from CellSave tube and from HL-60 cells using M-PER buffer with Protease and Phosphatase Inhibitor Cocktails (Thermo Fisher Scientific). Protein concentration was measured with the Pierce BCA Protein Assay Kit (Thermo Fisher Scientific). Western blots were performed as Simple Western Assays using the Wes System (ProteinSimple), a combination of capillary electrophoresis and immunodetection techniques, following the manufacturer's protocols. Primary antibodies were purchased from Cell Signaling Technology: phospho-TCTP-Ser46 (#5251) and TCTP (#5128). Quantitative analysis was performed using Compass Software (ProteinSimple). Signal intensity (area) of pTCTP was normalized to the peak area of TCTP and reported as pTCTP/TCTP or % pTCTP.
Target engagement in blasts was determined by measuring relative pTCTP/TCTP protein levels in PBMCs isolated from patient blood prior to and 3 hours after the first dose of onvansertib (FIG. 8C).

AML cell lines = settings: cited from earlier work
[2] = Pharmacokinetics: onvansertib plasma concentrations by LC/MS-MS; type: in vivo, human; settings: for Cmax / Tmax / AUC(0-t) / half-life: human, plasma, oral; for AUC(0-t): read-out: AUC(0-24)
Description: Pharmacokinetics: Blood samples were collected from patients for pharmacokinetic analysis on days 1 and 5 at predose; at 0.5, 1, 2, 3, 4, 8, and 24 hours after administration of onvansertib; and once on days 8, 15, and 22. Onvansertib plasma concentrations were determined by LC/MS-MS at PRA Bioanalytical Laboratory. The pharmacokinetics parameters, including maximum plasma concentration (Cmax), time to maximum plasma concentration (tmax), half-life (t1/2), and AUC, were calculated for each patient using Phoenix WinNonlin.

[3] = 20 patients chosen for ctDNA analysis
[4] = 12 mg/m^2, Cycle 1 day 5, mean ± SD, 12 mg/m^2 + Decitabine, 4 patients
[5] = 12 mg/m^2, Cycle 1 day 5, mean ± SD, 12 mg/m^2 + LDAC, 3 patients
[6] = 18 mg/m^2, Cycle 1 day 5, mean ± SD, 18 mg/m^2 + Decitabine, 3 patients
[7] = 18 mg/m^2, Cycle 1 day 5, mean ± SD, 18 mg/m^2 + LDAC, 3 patients
[8] = 40 mg/m^2, Cycle 1 day 5, mean ± SD, 40 mg/m^2 + LDAC, 3 patients
[9] = 60 mg/m^2, Cycle 1 day 5, mean ± SD, 60 mg/m^2 + Decitabine, 3 patients
[10] = 60 mg/m^2, Cycle 1 day 5, mean ± SD, 60 mg/m^2 + LDAC, 5 patients
[11] = 90 mg/m^2, Cycle 1 day 5, mean ± SD, 90 mg/m^2 + Decitabine, 6 patients
[12] = Cycle 1 day 5, mean ± SD, 27 mg/m^2 + Decitabine, 3 patients
[13] = Cycle 1 day 5, mean ± SD, 27 mg/m^2 + LDAC, 3 patients
[14] = Cycle 1 day 5, mean ± SD, 40 mg/m^2 + Decitabine, 4 patients

CN1CCN(c2ccc(OC(F)(F)F)c(Nc3ncc4c(n3)-c3c(c(C(N)=O)nn3CCO)CC4)c2)CC1 [onvansertib, 1-(2-hydroxyethyl)-8-{[5-(4-methylpiperazin-1-yl)-2-(trifluoromethoxy)phenyl]amino}-4,5-dihydro-1H-pyrazolo [4,3-h] quinazoline-3-carboxamide]
Non-Responders, (%) [1, 3]: 70%
Responders, (%) [1, 3]: 30%
patients with PR ([1]; LDAC arm): one
patients with ≥50% reduction in bone marrow blasts ([1]; LDAC arm, 12 patients): 25%
CRi rate ([1]; LDAC arm, 15 patients): 7%
Clinical Response ([1]; Patient 01-021): NR
BM % Blasts Log2(C1/C0) ([1]; Patient 01-021): −0.8625
Clinical Response ([1]; Patient 01-024): NR
BM % Blasts Log2(C1/C0) ([1]; Patient 01-024): −0.3219
Clinical Response ([1]; Patient 03-037): Responder
BM % Blasts Log2(C1/C0) ([1]; Patient 03-037): 0.8301
Clinical Response ([1]; Patient 05-016): NR
BM % Blasts Log2(C1/C0) ([1]; Patient 05-016): 3.0704
Clinical Response ([1]; Patient 05-030): Responder
BM % Blasts Log2(C1/C0) ([1]; Patient 05-030): −2.0000
Clinical Response ([1]; Patient 05-043): NR
BM % Blasts Log2(C1/C0) ([1]; Patient 05-043): −0.4150
Clinical Response ([1]; Patient 07-009): Responder
BM % Blasts Log2(C1/C0) ([1]; Patient 07-009): −0.0468
Clinical Response ([1]; Patient 07-013): NR
Clinical Response ([1]; Patient 07-018): NR
Clinical Response ([1]; Patient 07-033): NR
Clinical Response ([1]; Patient 07-035): Responder
BM % Blasts Log2(C1/C0) ([1]; Patient 07-035): −1.7370
Clinical Response ([1]; Patient 07-036): NR
BM % Blasts Log2(C1/C0) ([1]; Patient 07-036): −1.0000
Clinical Response ([1]; Patient 08-027): NR
BM % Blasts Log2(C1/C0) ([1]; Patient 08-027): −0.1043
Clinical Response ([1]; Patient 08-058): Responder
BM % Blasts Log2(C1/C0) ([1]; Patient 08-058): 0.9329
Clinical Response ([1]; Patient 09-026): NR
BM % Blasts Log2(C1/C0) ([1]; Patient 09-026): 0.3785
Clinical Response ([1]; Patient 09-032): NR
BM % Blasts Log2(C1/C0) ([1]; Patient 09-032): 0.1454
Clinical Response ([1]; Patient 09-064): Responder
BM % Blasts Log2(C1/C0) ([1]; Patient 09-064): −3.9069
Clinical Response ([1]; Patient 11-019): NR
BM % Blasts Log2(C1/C0) ([1]; Patient 11-019): 0.0000
Clinical Response ([1]; Patient 11-040): NR
BM % Blasts Log2(C1/C0) ([1]; Patient 11-040): 0.4021
Clinical Response ([1]; Patient 12-041): NR
BM % Blasts Log2(C1/C0) ([1]; Patient 12-041): 0.6951
median duration of CR/CRi ([1]; decitabine arm): 5.5 months
median number of cycles to achieve CR/CRi ([1]; decitabine arm): 4 cycles
range of duration of CR/CRi ([1]; decitabine arm): 1.5-11.5 months
range of number of cycles to achieve CR/CRi ([1]; decitabine arm): 1-7 cycles
Overall response rate (ORR: CR, CRi, MLFS, PR) ([1]; decitabine arm (7/21 patients)): 33%
patients with ≥50% reduction in bone marrow blasts ([1]; decitabine arm, 18 patients with evaluable bone marrow biopsy): 44%
patients with MLFS ([1]; decitabine arm, Phase 1b): one
patients with PR ([1]; decitabine arm, Phase 1b): one
CR/CRi rate ([1]; decitabine arm, Phase 1b, 21 evaluable patients, all doses): 24%
median number of cycles to achieve CR/CRi ([1]; responders of both arms (n=6)): 3 cycles
range of number of cycles to achieve CR/CRi ([1]; responders of both arms (n=6)): 1-7 cycles
patients with target engagement (≥50% decrease in pTCTP/TCTP at 3 hours postdose versus predose) (PLK1 substrate, TCTP; 24 evaluable patients with at least 10% circulating blasts): 33%
patients with ≥20% decrease in bone marrow blasts (PLK1 substrate, TCTP; nontarget engagement patients (2 of 11)): 18%
patients with ≥20% decrease in bone marrow blasts (PLK1 substrate, TCTP; target engagement patients (4 of 6)): 67%
inhibition of cell proliferation (AML cell lines): nanomolar concentrations
Cmax and AUC0-24 versus dose ([2]; both arms, 12-90 mg/m^2): increased proportionally with the administrated dose
Cmax [2, 4]: 163 ± 90 nM
Tmax [2, 4]: 2.5 ± 0.6 h
AUC(0-t) [2, 4]: 2.27 µM·h
half-life ([2]; 12 mg/m^2, Cycle 1 day 5, mean ± SD, 12 mg/m^2 + Decitabine, 4 patients, read-out: t1/2 (converted)): 26 ± 16 h
Cmax [2, 5]: 153 ± 84 nM
Tmax [2, 5]: 2 ± 1 h
AUC(0-t) [2, 5]: 2.15 µM·h
half-life ([2]; 12 mg/m^2, Cycle 1 day 5, mean ± SD, 12 mg/m^2 + LDAC, 3 patients, read-out: t1/2 (converted)): 32 ± 21 h
Cmax [2, 6]: 230 ± 129 nM
Tmax [2, 6]: 2.7 ± 0.6 h
AUC(0-t) [2, 6]: 3.38 µM·h
half-life ([2]; 18 mg/m^2, Cycle 1 day 5, mean ± SD, 18 mg/m^2 + Decitabine, 3 patients, read-out: t1/2 (converted)): 21 ± 7 h
Cmax [2, 7]: 109 ± 39 nM
Tmax [2, 7]: 3 ± 1 h
AUC(0-t) [2, 7]: 1.73 µM·h
half-life ([2]; 18 mg/m^2, Cycle 1 day 5, mean ± SD, 18 mg/m^2 + LDAC, 3 patients, read-out: t1/2 (converted)): 33 ± 18 h
half-life ([2]; 40 mg/m^2, Cycle 1 day 5, mean ± SD, 40 mg/m^2 + Decitabine, 4 patients, read-out: t1/2 (converted)): 25 ± 15 h
Cmax [2, 8]: 350 ± 104 nM
Tmax [2, 8]: 1.7 ± 1.2 h
AUC(0-t) [2, 8]: 4.27 µM·h
half-life ([2]; 40 mg/m^2, Cycle 1 day 5, mean ± SD, 40 mg/m^2 + LDAC, 3 patients, read-out: t1/2 (converted)): 16 ± 7 h
Cmax [2, 9]: 1040 nM
Tmax [2, 9]: 3.3 ± 1.2 h
AUC(0-t) [2, 9]: 16.3 µM·h
half-life ([2]; 60 mg/m^2, Cycle 1 day 5, mean ± SD, 60 mg/m^2 + Decitabine, 3 patients, read-out: t1/2 (converted)): 47 ± 8 h
Cmax [2, 10]: 905 ± 330 nM
Tmax [2, 10]: 2.4 ± 1.1 h
AUC(0-t) [2, 10]: 12.7 µM·h
half-life ([2]; 60 mg/m^2, Cycle 1 day 5, mean ± SD, 60 mg/m^2 + LDAC, 5 patients, read-out: t1/2 (converted)): 37 ± 13 h
Cmax [2, 11]: 1310 nM
AUC(0-t) [2, 11]: 21.8 µM·h
half-life ([2]; 90 mg/m^2, Cycle 1 day 5, mean ± SD, 90 mg/m^2 + Decitabine, 6 patients, read-out: t1/2 (converted)): 30 ± 11 h
Cmax [2, 12]: 4110 ± 118 nM
Tmax [2, 12]: 2 ± 1.7 h
AUC(0-t) [2, 12]: 5.42 µM·h
half-life ([2]; Cycle 1 day 5, mean ± SD, 27 mg/m^2 + Decitabine, 3 patients, read-out: t1/2 (converted)): 16 ± 6 h
Cmax [2, 13]: 340 ± 219 nM
Tmax [2, 13]: 2.7 ± 1.5 h
AUC(0-t) [2, 13]: 4.47 µM·h
half-life ([2]; Cycle 1 day 5, mean ± SD, 27 mg/m^2 + LDAC, 3 patients, read-out: t1/2 (converted)): 18 ± 5 h
Cmax [2, 14]: 539 ± 228 nM
Tmax [2, 14]: 3.3 ± 1 h
AUC(0-t) [2, 14]: 8.05 µM·h
Tmax ([2]; day 5 of cycle 1, across doses and arms): 1.7 to 3.3 h
half-life ([2]; day 5 of cycle 1, all patients, read-out: median half-life (t1/2) (converted)): 26.4 h
half-life ([2]; day 5 of cycle 1, all patients, read-out: range of half-life (t1/2)): 16 to 46.5 h
